Source: patent US20240287122A1, “NOVEL GALACTOSIDE INHIBITOR OF GALECTINS” (GALECTO BIOTECH AB, priority 2020, published 2024)

Legend:
Galectin-1 = Galectin-1 (Homo sapiens, UniProt P09382); test: Fluorescence anisotropy assay, affinity for galectin-1; format: binding; settings: compound as inhibitor of the interaction between galectin and a fluorescein tagged saccharide probe
Protocol: (§1) The affinity of Example 1-43 for galectins were determined by a fluorescence anisotropy assay where the compound was used as an inhibitor of the interaction between galectin and a fluorescein tagged saccharide probe as described Sörme, P., Kahl-Knutsson, B., Huflejt, M., Nilsson, U. J., and Leffler H. (2004) Fluorescence polarization as an analytical tool to evaluate galectin-ligand interactions. Anal. Biochem. 334: 36-47, (Sörme et al., 2004) and Monovalent interactions of Galectin-1 By Salomonsson, Emma; Larumbe, Amaia; Tejler, Johan; Tullberg, Erik; Rydberg, Hanna; Sundin, Anders; Khabut, Areej; Frejd, Torbjomn; Lobsanov, Yuri D.; Rini, James M.; et al, From Biochemistry (2010), 49(44), 9518-9532, (Salomonsson et al., 2010).

Galectin-3 = Galectin-3 (Homo sapiens, UniProt P17931); test: Fluorescence anisotropy assay, affinity for galectin-3; format: binding; settings: compound as inhibitor of the interaction between galectin and a fluorescein tagged saccharide probe
Protocol: as §1

Chain of Galectin-1 (P09382 whole entry): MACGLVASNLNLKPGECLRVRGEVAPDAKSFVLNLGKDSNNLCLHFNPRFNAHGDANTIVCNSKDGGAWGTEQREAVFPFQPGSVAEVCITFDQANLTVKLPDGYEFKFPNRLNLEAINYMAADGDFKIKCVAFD
Chain of Galectin-3 (P17931 whole entry): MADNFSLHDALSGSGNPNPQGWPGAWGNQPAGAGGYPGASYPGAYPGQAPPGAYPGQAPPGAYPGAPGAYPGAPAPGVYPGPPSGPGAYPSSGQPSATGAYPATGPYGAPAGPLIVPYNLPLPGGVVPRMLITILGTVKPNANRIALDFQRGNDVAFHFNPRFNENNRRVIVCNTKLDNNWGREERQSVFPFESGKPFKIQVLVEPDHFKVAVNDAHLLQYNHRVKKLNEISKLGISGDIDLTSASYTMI

SMILES	Kd (Galectin-1)	Kd (Galectin-3)
COC1C(n2cc(-n3ccc(Cl)n3)nn2)[C@@H](O)C(CO)O[C@@H]1Sc1cnc(C(F)(F)F)c(Cl)c1 (stereo partly drawn) [Example 8, 3-Chloro-2-(trifluoromethyl)pyridin-5-yl 3-[4-(3-chloro-1H-1,2-pyrazol-1-yl)-1H-1,2,3-triazol-1-yl]-3-deoxy-2-O-methyl-1-thio-α-D-galactopyranoside]	360 nM	540 nM
COC1C(n2cc(-n3cc(C)c(Cl)n3)nn2)[C@@H](O)C(CO)O[C@@H]1Sc1cc(Br)cnc1C#N (stereo partly drawn) [Example 18, 5-Bromo-2-cyanopyridin-3-yl 3-[4-(3-chloro-4-methyl-1H-1,2-pyrazol-1-yl)-1H-1,2,3-triazol-1-yl]-3-deoxy-2-O-methyl-1-thio-α-D-galactopyranoside]	350 nM	41 nM
OCC1O[C@H](Sc2cncc(Cl)c2)C(O)C(n2cc(-n3ccc(F)n3)nn2)[C@H]1O (stereo partly drawn) [Example 4, 5-Chloropyridin-3-yl 3-deoxy-3-[4-(3-fluoro-1H-1,2-pyrazol-1-yl)-1H-1,2,3-triazol-1-yl]-1-thio-α-D-galactopyranoside]	1700 nM	360 nM
CCN(CC1CCC1)C(=O)c1ncc(Br)cc1S[C@H]1OC(CO)[C@H](O)C(n2cc(-n3ccc(Cl)n3)nn2)C1OC (stereo partly drawn) [Example 25, 5-Bromo-2-[N,N-(cyclobutylmethyl)ethylcarbamoyl}pyridin-3-yl 3-[4-(3-chloro-1H-1,2-pyrazol-1-yl)-1H-1,2,3-triazol-1-yl]-3-deoxy-2-O-methyl-1-thio-α-D-galactopyranoside]	140 nM	75 nM
COC1C(n2cc(-n3ccc(Cl)n3)nn2)[C@@H](O)C(CO)O[C@@H]1Sc1cc(Br)cnc1C(=O)N(CC(C)C)CC(C)C (stereo partly drawn) [Example 20, 5-Bromo-2-(N,N-diisobutylcarbamoyl)pyridin-3-yl 3-[4-(3-chloro-1H-1,2-pyrazol-1-yl)-1H-1,2,3-triazol-1-yl]-3-deoxy-2-O-methyl-1-thio-α-D-galactopyranoside]	360 nM	360 nM
COC1C(n2cc(-n3nc(Cl)cc3C)nn2)[C@@H](O)C(CO)O[C@@H]1Sc1cc(Br)cnc1C#N (stereo partly drawn) [Example 16, 5-Bromo-2-cyanopyridin-3-yl 3-[4-(3-chloro-5-methyl-1H-1,2-pyrazol-1-yl)-1H-1,2,3-triazol-1-yl]-3-deoxy-2-O-methyl-1-thio-α-D-galactopyranoside]	350 nM	400 nM
COC1C(n2cc(-n3cc(F)c(Cl)n3)nn2)[C@@H](O)C(CO)O[C@@H]1Sc1cc(Br)cnc1C#N (stereo partly drawn) [Example 43, 5-Bromo-2-cyanopyridin-3-yl 3-[4-(3-chloro-4-fluoro-1H-1,2-pyrazol-1-yl)-1H-1,2,3-triazol-1-yl]-3-deoxy-2-O-methyl-1-thio-α-D-galactopyranoside]	270 nM	140 nM
COC1C(n2cc(-n3ccc(Cl)n3)nn2)[C@@H](O)C(CO)O[C@@H]1Sc1cnc(C(F)(F)F)c(Br)c1 (stereo partly drawn) [Example 9, 3-Bromo-2-(trifluoromethyl)pyridin-5-yl 3-[4-(3-chloro-1H-1,2-pyrazol-1-yl)-1H-1,2,3-triazol-1-yl]-3-deoxy-2-O-methyl-1-thio-α-D-galactopyranoside]	210 nM	390 nM
CCN(CC(C)(C)F)C(=O)c1ncc(Br)cc1S[C@H]1OC(CO)[C@H](O)C(n2cc(-n3ccc(Cl)n3)nn2)C1OC (stereo partly drawn) [Example 30, 5-Bromo-2-[N,N-ethyl(2-fluoro-2-methylpropyl)carbamoyl]pyridin-3-yl 3-[4-(3-chloro-1H-1,2-pyrazol-1-yl)-1H-1,2,3-triazol-1-yl]-3-deoxy-2-O-methyl-1-thio-α-D-galactopyranoside]	140 nM	62 nM
COC1C(n2cc(-n3nccc3C)nn2)[C@@H](O)C(CO)O[C@@H]1Sc1cc(Br)cnc1C#N (stereo partly drawn) [Example 15, 5-Bromo-2-cyanopyridin-3-yl 3-deoxy-3-[4-(5-methyl-1H-1,2-pyrazol-1-yl)-1H-1,2,3-triazol-1-yl]-2-O-methyl-1-thio-α-D-galactopyranoside]	890 nM	4300 nM
COC1C(n2cc(-n3ccc(Cl)n3)nn2)[C@@H](O)C(CO)O[C@@H]1Sc1cc(Br)cnc1C(=O)N(CC1CCC1)C(C)C (stereo partly drawn) [Example 26, 5-Bromo-2-[N,N-(cyclobutylmethyl)isopropylcarbamoyl]pyridin-3-yl 3-[4-(3-chloro-1H-1,2-pyrazol-1-yl)-1H-1,2,3-triazol-1-yl]-3-deoxy-2-O-methyl-1-thio-α-D-galactopyranoside]	160 nM	110 nM
COC1C(n2cc(-n3nc(C(F)(F)F)cc3Cl)nn2)[C@@H](O)C(CO)O[C@@H]1Sc1cc(Br)cnc1C#N (stereo partly drawn) [Example 17, 5-Bromo-2-cyanopyridin-3-yl 3-{4-[5-chloro-3-(trifluoromethyl)-1H-1,2-pyrazol-1-yl]-1H-1,2,3-triazol-1-yl}-3-deoxy-2-O-methyl-1-thio-α-D-galactopyranoside]	2000 nM	560 nM
COC1C(n2cc(-n3cc(Cl)c(Cl)n3)nn2)[C@@H](O)C(CO)O[C@@H]1Sc1cc(Br)cnc1C#N (stereo partly drawn) [Example 42, 5-Bromo-2-cyanopyridin-3-yl 3-[4-(3,4-dichloro-1H-1,2-pyrazol-1-yl)-1H-1,2,3-triazol-1-yl]-3-deoxy-2-O-methyl-1-thio-α-D-galactopyranoside]	290 nM	30 nM
CCN(C(=O)c1ncc(Br)cc1S[C@H]1OC(CO)[C@H](O)C(n2cc(-n3ccc(Cl)n3)nn2)C1OC)C(C)C (stereo partly drawn) [Example 19, 5-Bromo-2-(N,N-ethylisopropylcarbamoyl)pyridin-3-yl 3-[4-(3-chloro-1H-1,2-pyrazol-1-yl)-1H-1,2,3-triazol-1-yl]-3-deoxy-2-O-methyl-1-thio-α-D-galactopyranoside]	110 nM	92 nM

The remaining lines, values ahead:

Kd (Galectin-1)	Kd (Galectin-3)	SMILES
87 nM	72 nM	CCN(C(=O)c1ncc(Br)cc1S[C@H]1OC(CO)[C@H](O)C(n2cc(-n3ccc(Cl)n3)nn2)C1OC)C(C)(C)C (stereo partly drawn) [Example 23, 5-Bromo-2-[N,N-(tert-butyl)ethylcarbamoyl]pyridin-3-yl 3-[4-(3-chloro-1H-1,2-pyrazol-1-yl)-1H-1,2,3-triazol-1-yl]-3-deoxy-2-O-methyl-1-thio-α-D-galactopyranoside]
98 nM	76 nM	COC1C(n2cc(-n3ccc(Cl)n3)nn2)[C@@H](O)C(CO)O[C@@H]1Sc1cc(Br)cnc1C(=O)N(C)CC(C)(C)F (stereo partly drawn) [Example 22, 5-Bromo-2-[N,N-(2-fluoro-2-methylpropyl)methylcarbamoyl]pyridin-3-yl 3-[4-(3-chloro-1H-1,2-pyrazol-1-yl)-1H-1,2,3-triazol-1-yl]-3-deoxy-2-O-methyl-1-thio-α-D-galactopyranoside]
100 nM	60 nM	CCN(CC(F)(F)F)C(=O)c1ncc(Br)cc1S[C@H]1OC(CO)[C@H](O)C(n2cc(-n3ccc(Cl)n3)nn2)C1OC (stereo partly drawn) [Example 29, 5-Bromo-2-[N,N-ethyl-(2,2,2-trifluoroethyl)carbamoyl]pyridin-3-yl 3-[4-(3-chloro-1H-1,2-pyrazol-1-yl)-1H-1,2,3-triazol-1-yl]-3-deoxy-2-O-methyl-1-thio-α-D-galactopyranoside]
69 nM	52 nM	COC1C(n2cc(-n3ccc(Cl)n3)nn2)[C@@H](O)C(CO)O[C@@H]1Sc1cc(Br)cnc1C(=O)N1CCCC1 (stereo partly drawn) [Example 28, 5-Bromo-2-(pyrrolidine-1-carbonyl)pyridin-3-yl 3-[4-(3-chloro-1H-1,2-pyrazol-1-yl)-1H-1,2,3-triazol-1-yl]-3-deoxy-2-O-methyl-1-thio-α-D-galactopyranoside]
92 nM	110 nM	COC1[C@@H](Sc2cc(Br)cnc2C(=O)NCC(C)C)OC(CO)[C@H](O)[C@@H]1n1cc(-n2ccc(Cl)n2)nn1 (stereo partly drawn) [Example 37, 5-Bromo-2-(N-isobutylcarbamoyl)pyridin-3-yl 3-[4-(3-chloro-1H-1,2-pyrazol-1-yl)-1H-1,2,3-triazol-1-yl]-3-deoxy-2-O-methyl-1-thio-α-D-galactopyranoside]
100 nM	100 nM	CCN(CC1CC1)C(=O)c1ncc(Br)cc1S[C@H]1OC(CO)[C@H](O)C(n2cc(-n3ccc(Cl)n3)nn2)C1OC (stereo partly drawn) [Example 21, 5-Bromo-2-[N,N-(cyclopropylmethyl)ethylcarbamoyl]pyridin-3-yl 3-[4-(3-chloro-1H-1,2-pyrazol-1-yl)-1H-1,2,3-triazol-1-yl]-3-deoxy-2-O-methyl-1-thio-α-D-galactopyranoside]
110 nM	140 nM	CCCCNC(=O)c1ncc(Br)cc1S[C@H]1OC(CO)[C@H](O)[C@H](n2cc(-n3ccc(Cl)n3)nn2)C1OC (stereo partly drawn) [Example 36, 5-Bromo-2-(N-butylcarbamoyl)pyridin-3-yl 3-[4-(3-chloro-1H-1,2-pyrazol-1-yl)-1H-1,2,3-triazol-1-yl]-3-deoxy-2-O-methyl-1-thio-α-D-galactopyranoside]
85 nM	130 nM	COC1C(n2cc(-n3ccc(Cl)n3)nn2)[C@@H](O)C(CO)O[C@@H]1Sc1cc(Br)ccc1C#N (stereo partly drawn) [Example 2, 5-Bromo-2-cyanophenyl 3-[4-(3-chloro-1H-1,2-pyrazol-1-yl)-1H-1,2,3-triazol-1-yl]-3-deoxy-2-O-methyl-1-thio-α-D-galactopyranoside]
73 nM	160 nM	COC1[C@@H](Sc2cc(Br)cnc2C(=O)NC2CC2)OC(CO)[C@H](O)[C@@H]1n1cc(-n2ccc(Cl)n2)nn1 (stereo partly drawn) [Example 41, 5-Bromo-2-(N-cyclopropylcarbamoyl)pyridin-3-yl 3-[4-(3-chloro-1H-1,2-pyrazol-1-yl)-1H-1,2,3-triazol-1-yl]-3-deoxy-2-O-methyl-1-thio-α-D-galactopyranoside]
